Patent US9120749B2, “Quinoline derivatives and MELK inhibitors containing the same” (ONCOTHERAPY SCIENCE, INC., priority 2010, dated 2015)
Counter-ions that a name gives are not always drawn.

How the values were obtained:
[1] = target: MELK (Homo sapiens, UniProt Q14680); experiment: Kinase assay: MELK activity, phosphorylation of FITC-labeled histone H3 peptide measured by IMAP fluorescence polarization; type: biochemical; conditions: 50 micro-M ATP, FITC-labeled histone H3 peptide substrate, IMAP fluorescence polarization; read-out: IC50 (μM) (kinase assay)
Sequence of MELK (Q14680 whole entry, looked up): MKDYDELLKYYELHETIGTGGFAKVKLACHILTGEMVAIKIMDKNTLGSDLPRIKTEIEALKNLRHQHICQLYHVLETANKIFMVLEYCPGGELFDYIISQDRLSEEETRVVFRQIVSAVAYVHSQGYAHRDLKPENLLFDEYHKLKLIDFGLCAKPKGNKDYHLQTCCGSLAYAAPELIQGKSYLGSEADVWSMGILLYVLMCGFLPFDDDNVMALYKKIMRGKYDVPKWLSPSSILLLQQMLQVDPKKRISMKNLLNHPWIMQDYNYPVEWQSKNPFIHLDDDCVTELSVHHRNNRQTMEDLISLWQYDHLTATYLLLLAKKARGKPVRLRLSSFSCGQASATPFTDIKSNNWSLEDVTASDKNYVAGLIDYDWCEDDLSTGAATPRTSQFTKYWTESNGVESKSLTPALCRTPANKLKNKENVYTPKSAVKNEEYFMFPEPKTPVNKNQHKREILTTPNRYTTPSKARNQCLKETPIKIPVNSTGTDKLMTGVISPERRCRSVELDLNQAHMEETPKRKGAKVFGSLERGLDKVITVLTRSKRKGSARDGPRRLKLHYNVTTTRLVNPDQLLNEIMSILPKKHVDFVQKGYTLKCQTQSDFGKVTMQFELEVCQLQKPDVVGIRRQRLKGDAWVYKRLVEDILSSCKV
Outline: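 A FITC-labelled histone H3 peptide served as substrate, with compounds serially diluted to 1% DMSO final. Reactions were stopped with three volumes of IMAP progressive binding solution. After 0.5 h at room temperature, fluorescence polarization was read.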

[2] = tested on: BT-549 cells; experiment: Cell-based assay: anti-proliferative activity, Cell Counting Kit-8, 72 hours (BT-549); conditions: Homo sapiens, BT-549, 72 h, BT549 cells, MELK-expressing; Cell Counting Kit-8 at 72 hours
Procedure: To evaluate the expression status of MELK in several cell lines, western blot analysis was performed using crude cell lysate collected from those cells. Anti-MELK antibody (clone 31, BD Biosciences) was used to visualize the expression.
Active candidate inhibitors against MELK were evaluated for their target-specific cytotoxicity using T47D, A549, BT-549, and HT-1197 cells was used for negative control. 100 micro-L of cell suspension was seeded onto 96-well microtiter plate (ViewPlate-96FTC, PerkinElmer). The initial cell concentration of T47D, A549, BT-549, and HT-1197 were 3,000 cells/well, 2,000 cells/well and 2,500 cells/well, respectively. Cellular growth was determined using Cell Counting Kit-8 (DOJINDO) at 72 hours after the exposure of the candidate inhibitors. […] Accurate IC50 values were calculated as described previously.

[3] = tested on: T47D cells; experiment: Cell-based assay: anti-proliferative activity, Cell Counting Kit-8, 72 hours (T47D); conditions: Homo sapiens, T47D, 72 h, MELK-expressing, Cell Counting Kit-8 at 72 hours
Outline: (§1)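 T47D, A549 and BT-549 cells, with MELK-negative HT-1197 as control (MELK status checked by western blot), seeded at 2,000–3,000 cells/well. Growth measured by CCK-8 72 hours after inhibitor exposure; IC50 values calculated.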

[4] = tested on: A549 cells; experiment: Cell-based assay: anti-proliferative activity, Cell Counting Kit-8, 72 hours (A549); conditions: MELK-expressing, Cell Counting Kit-8 at 72 hours
Outline: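 A549 cells were seeded in 96-well plates and exposed to candidate inhibitors for 72 hours. Cell growth was then measured with Cell Counting Kit-8, and IC50 values were calculated from the resulting growth data.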

[5] = tested on: HT-1197 cells; experiment: Cell-based assay: anti-proliferative activity, Cell Counting Kit-8, 72 hours (HT-1197, negative control without MELK expression); conditions: Homo sapiens, HT1197, 72 h, HT1197 cells, no MELK expression (negative control); Cell Counting Kit-8 at 72 hours
Outline: as §1

Row | Structure (SMILES) | IC50 [1] [µM] | IC50 [2] [µM] | IC50 [3] [µM] | IC50 [4] [µM] | IC50 [5] [µM] | IC50 ([4]; Homo sapiens, A549, 72 h) [µM]
1 | CCN(CC)C1CCC(Nc2c(C(=O)C3CC3)cnc3ccc(-c4cc(Cl)c(O)c(OC)c4)cc23)CC1 (centres unmarked) [Example 185(a), {6-(3-Chloro-4-hydroxy-5-methoxyphenyl)-4-[4-(diethylamino)cyclohexylamino]quinolin-3-yl}(cyclopropyl)methanone] | 0.0026 | 2 | 0.59 | 0.42 | 6.9 | 
2 | COc1cc(-c2ccc3ncc(C(=O)C4CC4)c(N4CCC(N5CCN(C)CC5)CC4)c3c2)cc(Cl)c1O [Example 351, {6-(3-Chloro-4-hydroxy-5-methoxyphenyl)-4-[4-(4-methylpiperazin-1-yl)piperidin-1-yl]quinolin-3-yl}(cyclopropyl)methanone] | 0.0022 | 0.67 | 0.34 |  | 3 | 0.33
3 | N[C@H]1CC[C@H](Nc2c(C(=O)C3CC3)cnc3ccc(-c4ccc5[nH]cnc5c4)cc23)CC1 [Example 116, {4-[trans-4-Aminocyclohexylamino]-6-(1H-benzo[d]imidazol-5-yl)quinolin-3-yl}(cyclopropyl)methanone] | 0.018 | 5.7 | 1.8 |  | 15 | 13
4 | O=C(c1cnc2ccc(-c3ccc(O)c(Cl)c3)cc2c1N1CCC(CN2CCOCC2)CC1)C1CC1 [Example 332, {6-(3-Chloro-4-hydroxyphenyl)-4-[4-(morpholinomethyl)piperidin-1-yl]quinolin-3-yl}(cyclopropyl)methanone] | 0.035 | 1.5 | 0.67 |  | 10 | 0.55
5 | CC(C)CC(=O)c1cnc2ccc(-c3cc(Cl)c(O)c(Cl)c3)cc2c1N[C@H]1CC[C@H](N)CC1 [Example 267, 1-{4-[trans-4-Aminocyclohexylamino]-6-(3,5-dichloro-4-hydroxyphenyl)quinolin-3-yl}-3-methylbutan-1-one dihydrochloride] | 0.0022 | 0.72 | 0.14 |  | 3 | 0.38
6 | CN(C)[C@H]1CC[C@H](CNc2c(C(=O)C3CC3)cnc3ccc(-c4cc(F)c(O)c(Cl)c4)cc23)CC1 [Example 327] | 0.0055 | 1 | 0.48 |  | 3 | 0.42
7 | COc1cc(-c2ccc3ncc(C(=O)C4CC4)c(NC45CC6CC(CC(N)(C6)C4)C5)c3c2)cc(Cl)c1O [Example 309, {6-(3-Chloro-4-hydroxy-5-methoxyphenyl)-4-[(3-amino)adamantylamino]quinolin-3-yl}(cyclopropyl)methanone] | 0.0087 | 0.49 | 0.32 |  | 0.5 | 0.28
8 | CN1CCN(C2CCN(c3c(C(=O)C4CC4)cnc4ccc(-c5ccc(O)c(Cl)c5)cc34)CC2)CC1 [Example 350, {6-(3-Chloro-4-hydroxyphenyl)-4-[4-(4-methylpiperazin-1-yl)piperidin-1-yl]quinolin-3-yl}(cyclopropyl)methanone] | 0.005 | 0.98 | 0.26 |  | 2.5 | 0.44
9 | N[C@H]1CC[C@H](Nc2c(C(=O)C3CC3)cnc3ccc(-c4cc(F)c(O)c(Cl)c4)cc23)CC1 [Example 179, {4-[trans-4-Aminocyclohexylamino]-6-(3-chloro-5-fluoro-4-hydroxyphenyl)quinolin-3-yl}(cyclopropyl)methanone] | 0.0065 | 0.22 | 0.11 |  | 5.2 | 0.85
10 | CN(C)Cc1ccc(Nc2c(C(=O)C3CC3)cnc3ccc(-c4cc(Cl)c(O)c(Cl)c4)cc23)cc1 [Example 345, Cyclopropyl[6-(3,5-dichloro-4-hydroxyphenyl)-4-{4-[(dimethylamino)methyl]phenylamino}quinolin-3-yl]methanone] | 0.0032 | 0.1 | 0.054 |  | 0.67 | 0.051
